Reference: the supplement of paper PMC11061612

How the values were obtained:
SRA737 = compound: N#Cc1cnc(Nc2cc(NC[C@H]3CNCCO3)c(C(F)(F)F)cn2)cn1 [SRA737]; conditions: max 10 µM
Summary of the method: (§1)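 Cancer cell lines were plated in 1536-well plates in 7.5 μl of DMEM/F12 or RPMI with 10% FBS and kept 24 hours at 37°C and 5% CO2 before 72 hours of dosing, with final DMSO typically 0.2%. CellTiter-Glo 2.0 luminescence measured viability, scaled between blank-well and DMSO-well means. Dose responses were fitted to a two-parameter logistic curve with a non-linear mixed effects model. This fit gives the single-agent IC50.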

Venetoclax = compound: CC1(C)CCC(CN2CCN(c3ccc(C(=O)NS(=O)(=O)c4ccc(NCC5CCOCC5)c([N+](=O)[O-])c4)c(Oc4cnc5[nH]ccc5c4)c3)CC2)=C(c2ccc(Cl)cc2)C1 [Venetoclax]; conditions: max 1 µM
Summary of the method: as §1

AZD1775 = compound: C=CCn1c(=O)c2cnc(Nc3ccc(N4CCN(C)CC4)cc3)nc2n1-c1cccc(C(C)(C)O)n1 [AZD1775]; conditions: max 3 µM
Summary of the method: as §1

Etoposide = compound: COc1cc([C@@H]2c3cc4c(cc3[C@@H](O[C@@H]3O[C@@H]5CO[C@@H](C)O[C@H]5[C@H](O)[C@H]3O)[C@H]3COC(=O)[C@H]23)OCO4)cc(OC)c1O [Etoposide]; conditions: max 10 µM
Summary of the method: as §1

Dasatinib = compound: CC1=C(C(=CC=C1)Cl)NC(=O)C2=CN=C(S2)NC3=CC(=NC(=N3)C)N4CCN(CC4)CCO [Dasatinib]; conditions: max 2 µM
Summary of the method: as §1

AZD4320 = compound: CN(CC[C@H](CSC1=CC=CC=C1)NC2=C(C=C(C=C2)S(=O)(=O)NC(=O)C3=CC=C(C=C3)N4CCC(CC4)[C@H](C5=CC=CC=C5C6=CC=C(C=C6)Cl)O)S(=O)(=O)C(F)(F)F)CCO [AZD4320]; conditions: max 1 µM
Summary of the method: as §1

AZD0156 = compound: CN(C)CCCOc1ccc(-c2ccc3ncc4c(c3c2)n(C2CCOCC2)c(=O)n4C)cn1 [AZD0156]; conditions: max 3 µM
Summary of the method: as §1

Selumetinib = compound: Cn1cnc2c(F)c(Nc3ccc(Br)cc3Cl)c(C(=O)NOCCO)cc21 [Selumetinib]; conditions: max 10 µM
Summary of the method: as §1

AZD5363 = compound: C1CN(CCC1(C(=O)N[C@@H](CCO)C2=CC=C(C=C2)Cl)N)C3=NC=NC4=C3C=CN4 [AZD5363]; conditions: max 10 µM
Summary of the method: as §1

AZD5991 = compound: Cc1c2c(nn1C)CSCc1cc(n(C)n1)CSc1cc(c3ccccc3c1)OCCCc1c(C(=O)O)n(C)c3c-2c(Cl)ccc13 [AZD5991]; conditions: max 1 µM
Summary of the method: as §1

5-Fluorouracil = compound: O=c1[nH]cc(F)c(=O)[nH]1 [5-Fluorouracil]; conditions: max 20 µM
Summary of the method: as §1

Alisertib = compound: COc1cc(Nc2ncc3c(n2)-c2ccc(Cl)cc2C(c2c(F)cccc2OC)=NC3)ccc1C(=O)O [Alisertib]; conditions: max 10 µM
Summary of the method: as §1

AZD2811 = compound: CCN(CCO)CCCOc1ccc2c(Nc3cc(CC(=O)Nc4cccc(F)c4)[nH]n3)ncnc2c1 [AZD2811]; conditions: max 1 µM
Summary of the method: as §1

Crizotinib = compound: C[C@@H](Oc1cc(-c2cnn(C3CCNCC3)c2)cnc1N)c1c(Cl)ccc(F)c1Cl [Crizotinib]; conditions: max 10 µM
Summary of the method: as §1

Doxorubicin = compound: COc1cccc2c1C(=O)c1c(O)c3c(c(O)c1C2=O)C[C@@](O)(C(=O)CO)C[C@@H]3O[C@H]1C[C@H](N)[C@H](O)[C@H](C)O1 [Doxorubicin]; conditions: max 1 µM
Summary of the method: as §1

MK-2206 = compound: NC1(c2ccc(-c3nc4ccn5c(=O)[nH]nc5c4cc3-c3ccccc3)cc2)CCC1 [MK-2206]; conditions: max 10 µM
Summary of the method: as §1

Trametinib = compound: CC(=O)Nc1cccc(-n2c(=O)n(C3CC3)c(=O)c3c(Nc4ccc(I)cc4F)n(C)c(=O)c(C)c32)c1 [Trametinib]; conditions: max 1 µM
Summary of the method: as §1

Palbociclib = compound: CC(=O)c1c(C)c2cnc(Nc3ccc(N4CCNCC4)cn3)nc2n(C2CCCC2)c1=O [Palbociclib]; conditions: max 10 µM
Summary of the method: as §1

Savolitinib = compound: C[C@@H](c1ccc2nccn2c1)n1nnc2ncc(-c3cnn(C)c3)nc21 [Savolitinib]; conditions: max 1 µM
Summary of the method: as §1

Carboplatin = compound: C1CC(C1)(C(=O)[O-])C(=O)[O-].N.N.[Pt+2] [Carboplatin]; conditions: max 10 µM
Summary of the method: as §1

[1] = compound: O=C(Nc1ccc2[nH]nc(-c3ccncc3)c2c1)[C@@H]1CCN(CC(=O)N2CCN(c3ccc(-c4ncccn4)cc3)CC2)C1; conditions: max 5 µM
Summary of the method: as §1

AZD5153 = compound: COc1nnc2ccc(N3CCC(c4ccc(OCCN5CCN(C)C(=O)[C@H]5C)cc4)CC3)nn12 [AZD5153]; conditions: max 1 µM
Summary of the method: as §1

Gefitinib = compound: COc1cc2ncnc(Nc3ccc(F)c(Cl)c3)c2cc1OCCCN1CCOCC1 [Gefitinib]; conditions: max 10 µM
Summary of the method: as §1

Taselisib = compound: Cc1nc(-c2cn3c(n2)-c2ccc(-c4cnn(C(C)(C)C(N)=O)c4)cc2OCC3)n(C(C)C)n1 [Taselisib]; conditions: max 10 µM
Summary of the method: as §1

Olaparib = compound: O=C(c1cc(Cc2n[nH]c(=O)c3ccccc23)ccc1F)N1CCN(C(=O)C2CC2)CC1 [Olaparib]; conditions: max 10 µM
Summary of the method: as §1

AZD7648 = compound: Cc1cc2ncnn2cc1Nc1ncc2c(n1)n(C1CCOCC1)c(=O)n2C [AZD7648]; conditions: max 10 µM
Summary of the method: as §1

Lapatinib = compound: CS(=O)(=O)CCNCc1ccc(-c2ccc3ncnc(Nc4ccc(OCc5cccc(F)c5)c(Cl)c4)c3c2)o1 [Lapatinib]; conditions: max 10 µM
Summary of the method: as §1

Paclitaxel = compound: CC(=O)O[C@H]1C(=O)[C@@]2(C)[C@H]([C@H](OC(=O)c3ccccc3)[C@]3(O)C[C@H](OC(=O)[C@H](O)[C@@H](NC(=O)c4ccccc4)c4ccccc4)C(C)=C1C3(C)C)[C@]1(OC(C)=O)CO[C@@H]1C[C@@H]2O [Paclitaxel]; conditions: max 3 µM
Summary of the method: as §1

Prexasertib = compound: COc1cccc(OCCCN)c1-c1cc(Nc2cnc(C#N)cn2)n[nH]1 [Prexasertib]; conditions: max 1 µM
Summary of the method: as §1

AZD1390 = compound: CC(C)n1c(=O)n(C)c2cnc3cc(F)c(-c4ccc(OCCCN5CCCCC5)nc4)cc3c21 [AZD1390]; conditions: max 0.3 µM
Summary of the method: as §1

SN-38 = compound: CCc1c2c(nc3ccc(O)cc13)-c1cc3c(c(=O)n1C2)COC(=O)[C@]3(O)CC [SN-38]; conditions: max 0.3 µM
Summary of the method: as §1

AZD8186 = compound: C[C@@H](Nc1cc(F)cc(F)c1)c1cc(C(=O)N(C)C)cc2c(=O)cc(N3CCOCC3)oc12 [AZD8186]; conditions: max 10 µM
Summary of the method: as §1

SG3199 = compound: CC1=CN2[C@@H](C1)C=NC3=CC(=C(C=C3C2=O)OC)OCCCCCOC4=C(C=C5C(=C4)N=C[C@@H]6CC(=CN6C5=O)C)OC [SG3199]; conditions: max 0.001 µM
Summary of the method: as §1

AZD6738 = compound: C[C@@H]1COCCN1C2=NC(=NC(=C2)C3(CC3)[S@](=N)(=O)C)C4=C5C=CNC5=NC=C4 [AZD6738]; conditions: max 10 µM
Summary of the method: as §1

Gemcitabine = compound: Nc1ccn([C@@H]2O[C@H](CO)[C@@H](O)C2(F)F)c(=O)n1 [Gemcitabine]; conditions: max 0.3 µM
Summary of the method: as §1

| Cell Line | IC50, cell viability 72 h (SRA737) [µM] | IC50, cell viability 72 h (Venetoclax) [µM] | IC50, cell viability 72 h (AZD1775) [µM] | IC50, cell viability 72 h (Etoposide) [µM] | IC50, cell viability 72 h (Dasatinib) [µM] | IC50, cell viability 72 h (AZD4320) [µM] | IC50, cell viability 72 h (AZD0156) [µM] | IC50, cell viability 72 h (Selumetinib) [µM] | IC50, cell viability 72 h (AZD5363) [µM] | IC50, cell viability 72 h (AZD5991) [µM] | IC50, cell viability 72 h (5-Fluorouracil) [µM] | IC50, cell viability 72 h (Alisertib) [µM] | IC50, cell viability 72 h (AZD2811) [µM] | IC50, cell viability 72 h (Crizotinib) [µM] | IC50, cell viability 72 h (Doxorubicin) [µM] | IC50, cell viability 72 h (MK-2206) [µM] | IC50, cell viability 72 h (Trametinib) [µM] | IC50, cell viability 72 h (Palbociclib) [µM] | IC50, cell viability 72 h (Savolitinib) [µM] | IC50, cell viability 72 h (Carboplatin) [µM] | IC50, cell viability 72 h [1] [µM] | IC50, cell viability 72 h (AZD5153) [µM] | IC50, cell viability 72 h (Gefitinib) [µM] | IC50, cell viability 72 h (Taselisib) [µM] | IC50, cell viability 72 h (Olaparib) [µM] | IC50, cell viability 72 h (AZD7648) [µM] | IC50, cell viability 72 h (Lapatinib) [µM] | IC50, cell viability 72 h (Paclitaxel) [µM] | IC50, cell viability 72 h (Prexasertib) [µM] | IC50, cell viability 72 h (AZD1390) [µM] | IC50, cell viability 72 h (SN-38) [µM] | IC50, cell viability 72 h (AZD8186) [µM] | IC50, cell viability 72 h (SG3199) [µM] | IC50, cell viability 72 h (AZD6738) [µM] | IC50, cell viability 72 h (Gemcitabine) [µM] |
| --- | --- | --- | --- | --- | --- | --- | --- | --- | --- | --- | --- | --- | --- | --- | --- | --- | --- | --- | --- | --- | --- | --- | --- | --- | --- | --- | --- | --- | --- | --- | --- | --- | --- | --- | --- |
| FLO-1 (Esophageal Adenocarcinoma) | > 10 | > 1 | 0.266 | 2.55 | 0.0648 | > 1 | > 3 | > 10 | > 10 | > 1 | 7.08 | 7.3 | > 1 | 9.36 | 0.225 | > 10 | > 1 | > 10 | > 1 | > 10 | > 5 | 0.793 | > 10 | 8.83 | > 10 | > 10 | > 10 | 0.00542 | 0.0993 | > 0.3 | 0.201 | > 10 | > 0.001 | > 10 | 0.0938 |
| KYM-1 (Rhabdomyosarcoma) | 0.846 | > 1 | 0.926 | 0.668 | > 2 | > 1 | > 3 | > 10 | 7.86 | > 1 | 8.56 | > 10 | > 1 | 2.94 | 0.485 | > 10 | > 1 | 0.522 | > 1 | > 10 | > 5 | 0.0548 | > 10 | > 10 | > 10 | > 10 | > 10 | 0.00557 | 0.0338 | > 0.3 | 0.0235 | > 10 | > 0.001 | 2.64 | 0.00574 |
| Becker (Low Grade Glioma) | > 10 | > 1 | > 3 | > 10 | > 2 | > 1 | > 3 | > 10 | > 10 | > 1 | > 20 | > 10 | > 1 | > 10 | > 1 | > 10 | > 1 | > 10 | > 1 | > 10 | > 5 | > 1 | > 10 | 3.43 | > 10 | > 10 | > 10 | 0.00648 | 0.0941 | > 0.3 | 0.0285 | 3.9 | > 0.001 | > 10 | > 0.3 |
| NCI-H810 (Non-Small Cell Lung Carcinoma) | > 10 | > 1 | 0.437 | > 10 | > 2 | > 1 | > 3 | > 10 | > 10 | > 1 | > 20 | 1.38 | 0.33 | > 10 | 0.88 | > 10 | > 1 | > 10 | > 1 | > 10 | > 5 | 0.442 | > 10 | > 10 | > 10 | > 10 | > 10 | 0.282 | 0.0528 | > 0.3 | 0.202 | > 10 | > 0.001 | > 10 | > 0.3 |
| SW684 (Other Solid Carcinomas) | > 10 | > 1 | > 3 | > 10 | > 2 | > 1 | > 3 | > 10 | > 10 | > 1 | > 20 | > 10 | > 1 | > 10 | > 1 | > 10 | > 1 | > 10 | > 1 | > 10 | > 5 | > 1 | > 10 | 3.53 | > 10 | > 10 | > 10 | 1.43 | > 1 | > 0.3 | > 0.3 | > 10 | > 0.001 | > 10 | > 0.3 |
